Results reported in ChEMBL document CHEMBL1201862, “PubChem BioAssay data set” (2004).
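Where inhibition never reached the appropriate level, the endpoint shown equals the highest concentration tested. Otherwise, values were interpolated linearly from a five-concentration, 48-hour dose response in 96-well plates. At the GI50, growth is halved.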 Active and inactive are the calls of the source. Cut-off read from the data, not from the text of the source: active = GI50 up to about 1.1 µM and inactive = higher.

What was measured:
Experiment in all cases: inhibition of tumour cell growth, NCI panel, 48 h
SN12C = tested on: SN12C
XF498 = tested on: XF498
RPMI-8226 = tested on: RPMI-8226
NCI-H23 = tested on: NCI-H23
CAKI-1 = tested on: CAKI-1
HT-29 = tested on: HT-29
SNB-19 = tested on: SNB-19
SK-OV-3 = tested on: SK-OV-3
UO-31 = tested on: UO-31
A498 = tested on: A498
HOP-92 = tested on: HOP-92
SW-620 = tested on: SW-620
OVCAR-5 = tested on: OVCAR-5
SR = tested on: SR
RXF 393 = tested on: RXF 393
M19-MEL = tested on: M19-MEL
HOP-62 = tested on: HOP-62
IGROV-1 = tested on: IGROV-1
SK-MEL-2 = tested on: SK-MEL-2
NCI-H226 = tested on: NCI-H226
U-251 = tested on: U-251
HL-60 = tested on: HL-60
DMS-273 = tested on: DMS-273
OVCAR-4 = tested on: OVCAR-4
DLD-1 = tested on: DLD-1
786-0 = tested on: 786-0
ACHN = tested on: ACHN
SNB-75 = tested on: SNB-75
SK-MEL-5 = tested on: SK-MEL-5
MOLT-4 = tested on: MOLT-4
LXFL 529 = tested on: LXFL 529
OVCAR-3 = tested on: OVCAR-3
NCI-H460 = tested on: NCI-H460
SF-539 = tested on: SF-539
DMS-114 = tested on: DMS-114
SF-295 = tested on: SF-295
CCRF-CEM = tested on: CCRF-CEM
K562 = tested on: K562
A549 = tested on: A549
M14 = tested on: M14
KM-20L2 = tested on: KM-20L2
SK-MEL-28 = tested on: SK-MEL-28
COLO 205 = tested on: COLO 205
EKVX = tested on: EKVX
TK-10 = tested on: TK-10
NCI-H522 = tested on: NCI-H522
KM12 = tested on: KM12
HCC 2998 = tested on: HCC 2998
SF-268 = tested on: SF-268
SNB-78 = tested on: SNB-78
Malme-3M = tested on: Malme-3M
HCT-15 = tested on: HCT-15
HCT-116 = tested on: HCT-116
LOX IMVI = tested on: LOX IMVI
OVCAR-8 = tested on: OVCAR-8
UACC-257 = tested on: UACC-257
UACC-62 = tested on: UACC-62

`Cn1cc2ccccc2c1-c1nc(F)nc(F)n1` was tested, and the GI50 (SN12C) was > 100 µM (inactive), the GI50 (XF498) was 23.9 µM (inactive) and the GI50 (RPMI-8226) was 33 µM (inactive). The GI50 (NCI-H23) was > 100 µM (inactive), the GI50 (CAKI-1) was > 100 µM (inactive) and the GI50 (HT-29) was > 100 µM (inactive). For the same compound, the GI50 (SNB-19) was > 100 µM (inactive), the GI50 (SK-OV-3) was > 100 µM (inactive) and the GI50 (UO-31) was > 100 µM (inactive). For the same compound, the GI50 (A498) was > 100 µM (inactive), the GI50 (HOP-92) was > 100 µM (inactive) and the GI50 (SW-620) was > 100 µM (inactive). The GI50 (OVCAR-5) was > 100 µM (inactive), the GI50 (SR) was 41.6 µM (inactive) and the GI50 (RXF 393) was > 100 µM (inactive). For the same compound, the GI50 (M19-MEL) was > 100 µM (inactive), the GI50 (HOP-62) was > 100 µM (inactive) and the GI50 (IGROV-1) was > 100 µM (inactive). The GI50 (SK-MEL-2) was > 100 µM (inactive), the GI50 (NCI-H226) was > 100 µM (inactive) and the GI50 (U-251) was > 100 µM (inactive). For the same compound, the GI50 (HL-60) was 45.5 µM (inactive), the GI50 (DMS-273) was > 100 µM (inactive) and the GI50 (OVCAR-4) was > 100 µM (inactive). For the same compound, the GI50 (DLD-1) was > 100 µM (inactive), the GI50 (786-0) was > 100 µM (inactive) and the GI50 (ACHN) was > 100 µM (inactive). The GI50 (SNB-75) was 92.3 µM (inactive), the GI50 (SK-MEL-5) was > 100 µM (inactive) and the GI50 (MOLT-4) was 55 µM (inactive). The GI50 (LXFL 529) was > 100 µM (inactive), the GI50 (OVCAR-3) was > 100 µM (inactive) and the GI50 (NCI-H460) was > 100 µM (inactive). For the same compound, the GI50 (SF-539) was > 100 µM (inactive), the GI50 (DMS-114) was > 100 µM (inactive) and the GI50 (SF-295) was > 100 µM (inactive). The GI50 (CCRF-CEM) was 97.9 µM (inactive), the GI50 (K562) was > 100 µM (inactive) and the GI50 (A549) was > 100 µM (inactive). For the same compound, the GI50 (M14) was > 100 µM (inactive), the GI50 (KM-20L2) was > 100 µM (inactive) and the GI50 (SK-MEL-28) was > 100 µM (inactive). The GI50 (COLO 205) was > 100 µM (inactive), the GI50 (EKVX) was > 100 µM (inactive) and the GI50 (TK-10) was > 100 µM (inactive). For the same compound, the GI50 (NCI-H522) was > 100 µM (inactive), the GI50 (KM12) was 63.5 µM (inactive) and the GI50 (HCC 2998) was > 100 µM (inactive). For the same compound, the GI50 (SF-268) was > 100 µM (inactive), the GI50 (SNB-78) was > 100 µM (inactive) and the GI50 (Malme-3M) was > 100 µM (inactive). The GI50 (HCT-15) was > 100 µM, the GI50 (HCT-116) was > 100 µM (inactive) and the GI50 (LOX IMVI) was > 100 µM (inactive).

For `Cc1ccc(C(=O)N2c3ccccc3N(C)n3cccc3C2CC(=O)O)cc1` (configuration not stated), the GI50 (SN12C) was > 100 µM (inactive), the GI50 (XF498) was > 100 µM (inactive) and the GI50 (RPMI-8226) was > 100 µM (inactive). For the same compound, the GI50 (NCI-H23) was > 100 µM (inactive), the GI50 (CAKI-1) was > 100 µM (inactive) and the GI50 (HT-29) was > 100 µM (inactive). The GI50 (SNB-19) was > 100 µM (inactive), the GI50 (UO-31) was > 100 µM (inactive) and the GI50 (A498) was > 100 µM (inactive). For the same compound, the GI50 (HOP-92) was > 100 µM (inactive), the GI50 (SW-620) was > 100 µM (inactive) and the GI50 (OVCAR-5) was > 100 µM (inactive). For the same compound, the GI50 (RXF 393) was > 100 µM (inactive), the GI50 (M19-MEL) was > 100 µM (inactive) and the GI50 (HOP-62) was > 100 µM (inactive). For the same compound, the GI50 (IGROV-1) was > 100 µM (inactive), the GI50 (SK-MEL-2) was > 100 µM (inactive) and the GI50 (NCI-H226) was > 100 µM (inactive). The GI50 (HL-60) was > 100 µM (inactive), the GI50 (DMS-273) was > 100 µM (inactive) and the GI50 (OVCAR-4) was > 100 µM (inactive). The GI50 (DLD-1) was > 100 µM (inactive), the GI50 (786-0) was > 100 µM (inactive) and the GI50 (ACHN) was > 100 µM (inactive). The GI50 (SNB-75) was > 100 µM (inactive), the GI50 (SK-MEL-5) was > 100 µM (inactive) and the GI50 (MOLT-4) was > 100 µM (inactive). The GI50 (OVCAR-8) was > 100 µM (inactive), the GI50 (LXFL 529) was > 100 µM (inactive) and the GI50 (OVCAR-3) was > 100 µM (inactive). For the same compound, the GI50 (NCI-H460) was > 100 µM (inactive), the GI50 (SF-539) was > 100 µM (inactive) and the GI50 (DMS-114) was > 100 µM (inactive). For the same compound, the GI50 (SF-295) was > 100 µM (inactive), the GI50 (CCRF-CEM) was > 100 µM (inactive) and the GI50 (K562) was > 100 µM (inactive). The GI50 (A549) was > 100 µM (inactive), the GI50 (M14) was > 100 µM (inactive) and the GI50 (KM-20L2) was > 100 µM (inactive). The GI50 (SK-MEL-28) was > 100 µM (inactive), the GI50 (COLO 205) was > 100 µM (inactive) and the GI50 (EKVX) was > 100 µM (inactive). For the same compound, the GI50 (TK-10) was > 100 µM (inactive), the GI50 (NCI-H522) was > 100 µM (inactive) and the GI50 (KM12) was > 100 µM (inactive). The GI50 (HCC 2998) was > 100 µM (inactive), the GI50 (SF-268) was > 100 µM (inactive) and the GI50 (SNB-78) was > 100 µM (inactive). The GI50 (Malme-3M) was > 100 µM (inactive), the GI50 (HCT-15) was > 100 µM and the GI50 (UACC-257) was > 100 µM (inactive). For the same compound, the GI50 (UACC-62) was > 100 µM (inactive) and the GI50 (LOX IMVI) was > 100 µM (inactive).
